# According to patent US20260347364A1, “PYRAZOLO[4,3-F]QUINAZOLINE DERIVATIVES AS MODULATORS OF G12D MUTANT KRAS USEFUL FOR THE TREATMENT OF CANCER” (JAZZ PHARMACEUTICALS IRELAND LTD., priority 2023, published 2026):
# Tests used:
# KRAS G12D = target: T1, KRAS G12D (Homo sapiens, UniProt P01116, G12D); assay: HTRF nucleotide exchange assay, KRAS G12D; type: biochemical; conditions: HTRF nucleotide exchange assay (NEA), class symbols
# T1 construct: aa1-188 KRAS WT, HRAS WT, NRAS WT, or KRAS containing the G12D
# KRAS WT = target: T2, KRAS WT (Homo sapiens, UniProt P01116); assay: HTRF nucleotide exchange assay, KRAS WT; type: biochemical; conditions: class symbols; for IC50: HTRF nucleotide exchange assay (NEA)
# T2 construct: aa1-188 KRAS WT
# T2 sequence (P01116 1-188 isoform P01116-2): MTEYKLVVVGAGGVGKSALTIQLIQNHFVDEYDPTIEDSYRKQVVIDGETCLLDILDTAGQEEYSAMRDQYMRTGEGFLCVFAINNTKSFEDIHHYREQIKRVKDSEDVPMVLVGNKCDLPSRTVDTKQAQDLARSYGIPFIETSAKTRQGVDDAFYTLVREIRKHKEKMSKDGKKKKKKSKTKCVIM
# T1 sequence (P01116 1-188 isoform P01116-2 G12D): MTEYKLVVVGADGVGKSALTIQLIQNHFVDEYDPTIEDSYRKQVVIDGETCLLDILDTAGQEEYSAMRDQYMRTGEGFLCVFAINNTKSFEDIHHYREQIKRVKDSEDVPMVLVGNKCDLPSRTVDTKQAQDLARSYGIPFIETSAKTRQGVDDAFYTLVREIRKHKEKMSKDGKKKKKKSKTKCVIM
SMILES,IC50 (KRAS G12D),IC50 (KRAS WT),KRAS^WT NEA (KRAS WT)
"CCc1c(F)ccc2cc(O)cc(-c3cc4nc(OC[C@@]56CCCN5C[C@H](F)C6)nc(N5CCC(O)C(F)(F)CC5)c4c4cn(C)nc34)c12 (stereo partly drawn) [Example 126, 1-[4-(8-ethyl-7-fluoro-3-hydroxy-1-naphthyl)-2-methyl-7-[[(2R,8S)-2-fluoro-1,2,3,5,6,7-hexahydropyrrolizin-8-yl]methoxy]pyrazolo[4,3-f]quinazolin-9-yl]-5,5-difluoro-azepan-4-ol]",10 to 100 nM,10 to 100 nM,–
"CN(C)C(=O)c1cc2n(n1)CCCN(c1nc(OC[C@@]34CCCN3C[C@H](F)C4)nc3cc(-c4cccc5sc(N)c(C#N)c45)c4nn(C)cc4c13)C2 [Example 76, 5-[4-(2-amino-3-cyano-benzothiophen-4-yl)-7-[[(2R,8S)-2-fluoro-1,2,3,5,6,7-hexahydropyrrolizin-8-yl]methoxy]-2-methyl-pyrazolo[4,3-f]quinazolin-9-yl]-N,N-dimethyl-4,6,7,8-tetrahydropyrazolo[1,5-a][1,4]diazepine-2-carboxamide]",≤ 10 nM,10 to 100 nM,–
"CCc1c(F)ccc2cc(O)cc(-c3cc4nc(OC[C@@]56CCCN5C[C@H](F)C6)nc(N5CCC5C(C)(C)O)c4c4cn(C)nc34)c12 (stereo partly drawn) [Example 135, 5-ethyl-6-fluoro-4-[9-[2-(1-hydroxy-1-methyl-ethyl)azetidin-1-yl]-2-methyl-7-[[(2R,8S)-2-fluoro-1,2,3,5,6,7-hexahydropyrrolizin-8-yl]methoxy]pyrazolo[4,3-f]quinazolin-4-yl]naphthalen-2-ol]",100 to 10000 nM,10 to 100 nM,–
"CCc1c(F)ccc2cc(O)cc(-c3cc4nc(OC[C@@]56CCCN5C[C@H](F)C6)nc(N5CCCC(C)(C#N)C5)c4c4cn(C)nc34)c12 (stereo partly drawn) [Example 132, 1-[4-(8-ethyl-7-fluoro-3-hydroxy-1-naphthyl)-2-methyl-7-[[(2R,8S)-2-fluoro-1,2,3,5,6,7-hexahydropyrrolizin-8-yl]methoxy]pyrazolo[4,3-f]quinazolin-9-yl]-3-methyl-piperidine-3-carbonitrile]",100 to 10000 nM,100 to 10000 nM,–
"C#Cc1c(F)ccc2cc(O)cc(-c3cc4nc(OC[C@@]56CCCN5C[C@H](F)C6)nc(N5CCCNCC5)c4c4cn(C)nc34)c12 (single isomer, unassigned) [Example 35]",100 to 10000 nM,–,D (<49% inhibition at 10 μM)
"CN(C)C(=O)c1cc2n(n1)CCCN(c1nc(OC[C@@]34CCCN3C[C@H](F)C4)nc3cc(-c4cc(O)c(F)c5ccccc45)c4nn(C)cc4c13)C2 [Example 61, 5-[4-(4-fluoro-3-hydroxy-1-naphthyl)-2-methyl-7-[[(2R,8S)-2-fluoro-1,2,3,5,6,7-hexahydropyrrolizin-8-yl]methoxy]pyrazolo[4,3-f]quinazolin-9-yl]-N,N-dimethyl-4,6,7,8-tetrahydropyrazolo[1,5-a][1,4]diazepine-2-carboxamide]",10 to 100 nM,100 to 10000 nM,–
"CCc1c(F)ccc2cc(O)cc(-c3c(C)c4nc(OC[C@@]56CCCN5C[C@H](F)C6)nc(N5CCCn6nc(C(=O)N(C)C)cc6C5)c4c4cn(C)nc34)c12 [Example 80, 5-[4-(8-ethyl-7-fluoro-3-hydroxy-1-naphthyl)-2,5-dimethyl-7-[[(2R,8S)-2-fluoro-1,2,3,5,6,7-hexahydropyrrolizin-8-yl]methoxy]pyrazolo[4,3-f]quinazolin-9-yl]-N,N-dimethyl-4,6,7,8-tetrahydropyrazolo[1,5-a][1,4]diazepine-2-carboxamide]",≤ 10 nM,≤ 10 nM,–
"CCc1c(F)ccc2cc(O)cc(-c3cc4nc(OC[C@@]56CCCN5C[C@H](F)C6)nc(N5CCCn6nc(C(=O)N(C)C)nc6C5)c4c4cn(C)nc34)c12 [Example 112, 8-[4-(8-ethyl-7-fluoro-3-hydroxy-1-naphthyl)-2-methyl-7-[[(2R,8S)-2-fluoro-1,2,3,5,6,7-hexahydropyrrolizin-8-yl]methoxy]pyrazolo[4,3-f]quinazolin-9-yl]-N,N-dimethyl-5,6,7,9-tetrahydro-[1,2,4]triazolo[1,5-a][1,4]diazepine-2-carboxamide]",≤ 10 nM,≤ 10 nM,–
"CCc1c(F)ccc2cc(O)cc(-c3c(C)c4nc(OCC5(CN(C)C)CC5)nc(N5CCOCC(C)(O)C5)c4c4cn(C)nc34)c12 (centres unmarked) [Example 142, 4-[7-[[1-[(dimethylamino)methyl]cyclopropyl]methoxy]-4-(8-ethyl-7-fluoro-3-hydroxy-1-naphthyl)-2,5-dimethyl-pyrazolo[4,3-f]quinazolin-9-yl]-6-methyl-1,4-oxazepan-6-ol]",≤ 10 nM,≤ 10 nM,–
"CCc1c(F)ccc2cc(O)cc(-c3c(F)c4nc(OC[C@@H]5CCCN5C)nc(N5CCOCC(C)(O)C5)c4c4cn(C)nc34)c12 (stereo partly drawn) [Example 154, 4-[4-(8-ethyl-7-fluoro-3-hydroxy-1-naphthyl)-5-fluoro-2-methyl-7-[[(2S)-1-methylpyrrolidin-2-yl]methoxy]pyrazolo[4,3-f]quinazolin-9-yl]-6-methyl-1,4-oxazepan-6-ol]",≤ 10 nM,≤ 10 nM,–

# More lines, now with the values ahead:
IC50 (KRAS G12D),IC50 (KRAS WT),KRAS^WT NEA (KRAS WT),SMILES
10 to 100 nM,10 to 100 nM,–,"CCc1c(F)ccc2cc(O)cc(-c3cc4nc(OC[C@@]56CCCN5C[C@H](F)C6)nc(N5CCOC6(COC6)C5)c4c4cn(C)nc34)c12 [Example 199, 4-[9-(2,5-dioxa-8-azaspiro[3.5]nonan-8-yl)-2-methyl-7-[[(2R,8S)-2-fluoro-1,2,3,5,6,7-hexahydropyrrolizin-8-yl]methoxy]pyrazolo[4,3-f]quinazolin-4-yl]-5-ethyl-6-fluoro-naphthalen-2-ol]"
≤ 10 nM,≤ 10 nM,–,"CCc1c(F)ccc2cc(O)cc(-c3c(F)c4nc(OC[C@@]56CCCN5C[C@H](F)C6)nc(N5C[C@H]6COC[C@H]6C5)c4c4cn(C)nc34)c12 [Example 174, 5-ethyl-6-fluoro-4-[5-fluoro-2-methyl-9-[(3aR,6aS)-1,3,3a,4,6,6a-hexahydrofuro[3,4-c]pyrrol-5-yl]-7-[[(2R,8S)-2-fluoro-1,2,3,5,6,7-hexahydropyrrolizin-8-yl]methoxy]pyrazolo[4,3-f]quinazolin-4-yl]naphthalen-2-ol]"
≤ 10 nM,≤ 10 nM,–,"CCc1c(F)ccc2cc(O)cc(-c3c(F)c4nc(OCC56CCCN5CC(=C(F)F)C6)nc(N5CCOCC(C)(O)C5)c4c4cn(C)nc34)c12 (centres unmarked) [Example 235, 4-[7-[[6-(difluoromethylene)-2,3,5,7-tetrahydro-1H-pyrrolizin-8-yl]methoxy]-4-(8-ethyl-7-fluoro-3-hydroxy-1-naphthyl)-5-fluoro-2-methyl-pyrazolo[4,3-f]quinazolin-9-yl]-6-methyl-1,4-oxazepan-6-ol]"
≤ 10 nM,≤ 10 nM,–,"CCc1c(F)ccc2cc(O)cc(-c3c(F)c4nc(OCC5(CN(C)C)CC5)nc(N5CCC[C@@](C)(O)C5)c4c4cn(C)nc34)c12 [Example 230, (3R)-1-[7-[[1-[(dimethylamino)methyl]cyclopropyl]methoxy]-4-(8-ethyl-7-fluoro-3-hydroxy-1-naphthyl)-5-fluoro-2-methyl-pyrazolo[4,3-f]quinazolin-9-yl]-3-methyl-piperidin-3-ol]"
≤ 10 nM,≤ 10 nM,–,"CCc1c(F)ccc2cc(O)cc(-c3c(F)c4nc(OCC5(CN6CC7CC7C6)CC5)nc(N5CCOCC(C)(O)C5)c4c4cn(C)nc34)c12 (centres unmarked) [Example 221, 4-[7-[[1-(3-azabicyclo[3.1.0]hexan-3-ylmethyl)cyclopropyl]methoxy]-4-(8-ethyl-7-fluoro-3-hydroxy-1-naphthyl)-5-fluoro-2-methyl-pyrazolo[4,3-f]quinazolin-9-yl]-6-methyl-1,4-oxazepan-6-ol]"
≤ 10 nM,≤ 10 nM,–,"CCc1c(F)ccc2cc(O)cc(-c3c(F)c4nc(OC[C@@]56CCCN5C[C@H](F)C6)nc(N5CCCn6nc(C(=O)N7CCCC7)cc6C5)c4c4cn(C)nc34)c12 [Example 197, [5-[4-(8-ethyl-7-fluoro-3-hydroxy-1-naphthyl)-5-fluoro-7-[[(2R,8S)-2-fluoro-1,2,3,5,6,7-hexahydropyrrolizin-8-yl]methoxy]-2-methyl-pyrazolo[4,3-f]quinazolin-9-yl]-4,6,7,8-tetrahydropyrazolo[1,5-a][1,4]diazepin-2-yl]-pyrrolidin-1-yl-methanone]"
≤ 10 nM,100 to 10000 nM,–,"CCc1c(F)ccc2cc(O)cc(-c3cc4nc(OC[C@@]56CCCN5C[C@H](F)C6)nc(N5CCCC6(COC6)C5)c4c4cn(C)nc34)c12 [Example 201, 5-ethyl-6-fluoro-4-[2-methyl-9-(2-oxa-8-azaspiro[3.5]nonan-8-yl)-7-[[(2R,8S)-2-fluoro-1,2,3,5,6,7-hexahydropyrrolizin-8-yl]methoxy]pyrazolo[4,3-f]quinazolin-4-yl]naphthalen-2-ol]"
≤ 10 nM,≤ 10 nM,–,"CCc1c(F)ccc2cc(O)cc(-c3c(C)c4nc(OC[C@@]56CCCN5C[C@H](F)C6)nc(N5CCCn6nc(C(=O)N(C)C)c(F)c6C5)c4c4cn(C)nc34)c12 [Example 180, 5-[4-(8-ethyl-7-fluoro-3-hydroxy-1-naphthyl)-2,5-dimethyl-7-[[(2R,8S)-2-fluoro-1,2,3,5,6,7-hexahydropyrrolizin-8-yl]methoxy]pyrazolo[4,3-f]quinazolin-9-yl]-3-fluoro-N,N-dimethyl-4,6,7,8-tetrahydropyrazolo[1,5-a][1,4]diazepine-2-carboxamide]"
≤ 10 nM,≤ 10 nM,–,"CCc1c(F)ccc2cc(O)cc(-c3c(F)c4nc(OC[C@@]56CCCN5C[C@H](F)C6)nc(N5CCCn6nc(C(=O)N7CCOCC7)cc6C5)c4c4cn(C)nc34)c12 [Example 195, [5-[4-(8-ethyl-7-fluoro-3-hydroxy-1-naphthyl)-5-fluoro-7-[[(2R,8S)-2-fluoro-1,2,3,5,6,7-hexahydropyrrolizin-8-yl]methoxy]-2-methyl-pyrazolo[4,3-f]quinazolin-9-yl]-4,6,7,8-tetrahydropyrazolo[1,5-a][1,4]diazepin-2-yl]-morpholino-methanone]"
